The source of these data is patent US11000033B2, “Ketone or oxime compound, and herbicide” (NISSAN CHEMICAL CORPORATION, priority 2014, dated 2021).

Holding throughout (assay type): in vivo
Series [1] concerns soybean. The series can be described thus: Test Example 4: effect on crop by soil treatment (symbol d). Particulars: application herbicide amount 320 g/ha. The gist of the method: (§1)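 Soil-treatment setup: crop and weed seeds were spot-sown into sterilized diluvial soil, then buried beneath approximately 1.5 cm of it, and the boxes were housed in a 25–30° C. greenhouse.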
For a further series, the system named is rice plant. The series can be described thus: Test Example 5: effect on crop by foliage application, plastic box (symbol b). Particulars: 320 g/ha, 3 weeks after application. The gist of the method:
(§2)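 Soil: sterilized diluvial. Container: plastic box, 21 × 13 cm, 7 cm deep. Sowing: spot-like, ~1.5 cm cover. Growth: greenhouse, 25° C. to 30° C.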

The test system of series [2] is Echinochloa oryzacola Vasing. The series can be described thus: Test Example 1: herbicidal activity, application before weed generation in submerged conditions (symbol A). Particulars: application herbicide amount 320 g/ha. The gist of the method: (§3)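 Application before weed emergence: an aqueous dilution of the emulsion formulation was poured onto the surface of 4 cm-deep floodwater on the day of sowing. Effect was judged after 3 weeks (greenhouse, 25–30 °C).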

The test system of a further series is wheat. The series can be described thus: Test Example 5: effect on crop by foliage application, plastic box (symbol e). Particulars: 320 g/ha, 3 weeks after application. The gist of the method:
as §2

The test system of series [3] is Scirpus juncoides. The series is described as follows: Test Example 1: herbicidal activity, application before weed generation in submerged conditions (symbol B). Particulars: application herbicide amount 320 g/ha. The gist of the method:
as §3

The test system of another series is Monochoria vaginalis. The series can be described thus: Test Example 2: herbicidal activity, application during weed generation in submerged conditions (symbol C). To be noted: Table 23; application herbicide amount 320 g/ha; grade 0-5 by criteria of Test Example 1. The gist of the method: (§4)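 Visual herbicidal ratings, taken three weeks after dosing, reflect post-emergence water-surface application to seedlings at one to two leaves. Conditions: co-sown weeds in alluvial soil flooded to 4 cm, greenhouse held at 25° C. to 30° C.; compound given as water-diluted emulsion at a fixed herbicide amount.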

The subject of series [4] is Echinochloa crus-galli var. crus-galli. The series is described as follows: Test Example 3: herbicidal effect by foliage application, Wagner pot (symbol H). To be noted: application herbicide amount 320 g/ha. The gist of the method: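 Herbicidal activity was rated three weeks after a foliar spray of diluted emulsion concentrate, applied at a predetermined dose to plants grown for 14 days from seed in waterlogged alluvial soil within a 25–30 °C greenhouse.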

For a further series, the system named is Amaranthus retroflexus. The series can be described thus: Test Example 4: herbicidal effect by soil treatment (symbol N). To be noted: application herbicide amount 320 g/ha. The gist of the method: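 Seeds were sown in sterilized diluvial soil, covered with about 1.5 cm of soil, and the soil surface was sprayed with a water-diluted emulsion of the compound at a predetermined rate. Plants grew in a greenhouse at 25° C. to 30° C.; effects were scored visually 3 weeks after application.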

The subject of the next series is Avena fatua. The series is described as follows: Test Example 5: herbicidal effect by foliage application, plastic box (symbol I). Particulars: 320 g/ha, 3 weeks after application. The gist of the method: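 Greenhouse foliar test: seedlings at 14 days, grown 25° C. to 30° C. in sterilized diluvial soil; compound applied as an aqueous dilution of an emulsion; response read 3 weeks after spraying.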

Series [5] concerns Scirpus juncoides. The series can be described thus: Test Example 2: herbicidal activity, application during weed generation in submerged conditions (symbol B). Particulars: Table 23; application herbicide amount 320 g/ha; grade 0-5 by criteria of Test Example 1. The gist of the method: as §4
The subject of series [6] is soybean. The series can be described thus: Test Example 5: effect on crop by foliage application, plastic box (symbol d). To be noted: 320 g/ha, 3 weeks after application. The gist of the method:
as §2

Another series has as its system rapeseed. The series is described as follows: Test Example 4: effect on crop by soil treatment (symbol g). To be noted: application herbicide amount 320 g/ha. The gist of the method: as §1

In the case of `CON=C(C)CC1CC(OC(=O)COc2cccc(OC)c2)=C(c2c(C)cc(C)cc2C)C1=O` (stereo not drawn) [1-068], the “d (soybean) effect on crop grade” value with soybean [1] was 0 (Herbicidal ratio of 5% or lower (almost no effect)). In addition, the “b: directly sowed rice plant, effect on crop grade” value (“b: directly sowed rice plant” for short) with rice plant was 5 (Herbicidal ratio of 90% or more (almost completely withered)). For the same molecule, the “Herbicidal effect grade, A: Echinochloa oryzacola Vasing.” value in [2] was 5 (Herbicidal ratio of 90% or more (almost completely withered)). In addition, the “e: wheat, effect on crop grade” value in the series on wheat is reported as 5 (Herbicidal ratio of 90% or more (almost completely withered)). Also, the “Herbicidal effect grade, B: Scirpus juncoides” value (“Herbicidal effect grade, B” for short) was 4 (Herbicidal ratio of 70% or higher and lower than 90%) with Scirpus juncoides [3]; 5 (Herbicidal ratio of 90% or more (almost completely withered)) in the series on Scirpus juncoides [5]. Further, the “Herbicidal effect grade, C: Monochoria vaginalis” value (“Herbicidal effect grade, C” for short) in the series on Monochoria vaginalis was 3 (Herbicidal ratio of 40% or higher and lower than 70%). For the same molecule, in series [4], the “herbicidal effect on H (Echinochloa crus-galli var. crus-galli), grade 0-5” value (shortened to “herbicidal effect on H”) is given as 5 (Herbicidal ratio of 90% or more (almost completely withered)). Besides, the “N (Amaranthus retroflexus) herbicidal effect grade” value in the series with Amaranthus retroflexus was 4 (Herbicidal ratio of 70% or higher and lower than 90%). In addition, in the series on Avena fatua, the “I: Avena fatua, herbicidal effect grade” value is recorded as 5 (Herbicidal ratio of 90% or more (almost completely withered)). For the same molecule, the “d: soybean, effect on crop grade” value in the series with soybean [6] is 4 (Herbicidal ratio of 70% or higher and lower than 90%). The “g (rapeseed) effect on crop grade” value in the series with rapeseed was 4 (Herbicidal ratio of 70% or higher and lower than 90%).
Consider `CON=CCC1CC(O)=C(c2c(C)cc(C)cc2C)C1=O` (stereo not drawn) [1-050], for which, in the series on soybean [1], the “d (soybean) effect on crop grade” value is given as 0 (Herbicidal ratio of 5% or lower (almost no effect)). Further, the “b: directly sowed rice plant” value in the series with rice plant is on record as 5 (Herbicidal ratio of 90% or more (almost completely withered)). In [2], the “Herbicidal effect grade, A: Echinochloa oryzacola Vasing.” value was 4 (Herbicidal ratio of 70% or higher and lower than 90%). Moreover, the “e: wheat, effect on crop grade” value in the series with wheat was 0 (Herbicidal ratio of 5% or lower (almost no effect)). The “Herbicidal effect grade, B” value in the series on Scirpus juncoides [3] was 2 (Herbicidal ratio of 20% or higher and lower than 40%); in the series on Scirpus juncoides [5], 0 (Herbicidal ratio of 5% or lower (almost no effect)). The “Herbicidal effect grade, C” value in the series on Monochoria vaginalis was 0 (Herbicidal ratio of 5% or lower (almost no effect)). Moreover, the “herbicidal effect on H” value in series [4] is 5 (Herbicidal ratio of 90% or more (almost completely withered)). For the same molecule, in the series on Amaranthus retroflexus, the “N (Amaranthus retroflexus) herbicidal effect grade” value is given as 0 (Herbicidal ratio of 5% or lower (almost no effect)). In addition, in the series with Avena fatua, the “I: Avena fatua, herbicidal effect grade” value is 3 (Herbicidal ratio of 40% or higher and lower than 70%). For the same molecule, the “d: soybean, effect on crop grade” value with soybean [6] is listed as 0 (Herbicidal ratio of 5% or lower (almost no effect)). For the same molecule, the “g (rapeseed) effect on crop grade” value with rapeseed is given as 0 (Herbicidal ratio of 5% or lower (almost no effect)).
Take `CON=C(CC1CC1)CC1CC(O)=C(c2c(C)cc(C)cc2C)C1=O` (stereo not drawn) [1-070]: the “d (soybean) effect on crop grade” value in the series on soybean [1] was 0 (Herbicidal ratio of 5% or lower (almost no effect)). In the series on rice plant, the “b: directly sowed rice plant” value is 5 (Herbicidal ratio of 90% or more (almost completely withered)). Moreover, the “Herbicidal effect grade, A: Echinochloa oryzacola Vasing.” value in series [2] was 4 (Herbicidal ratio of 70% or higher and lower than 90%). Besides, in the series on wheat, the “e: wheat, effect on crop grade” value is on record as 0 (Herbicidal ratio of 5% or lower (almost no effect)). In addition, the “Herbicidal effect grade, B” value with Scirpus juncoides [3] and with Scirpus juncoides [5] was 0 (Herbicidal ratio of 5% or lower (almost no effect)) each time. The “Herbicidal effect grade, C” value in the series on Monochoria vaginalis is on record as 0 (Herbicidal ratio of 5% or lower (almost no effect)). Further, the “herbicidal effect on H” value in [4] is on record as 5 (Herbicidal ratio of 90% or more (almost completely withered)). Moreover, the “N (Amaranthus retroflexus) herbicidal effect grade” value with Amaranthus retroflexus is recorded as 0 (Herbicidal ratio of 5% or lower (almost no effect)). Moreover, in the series with Avena fatua, the “I: Avena fatua, herbicidal effect grade” value was 5 (Herbicidal ratio of 90% or more (almost completely withered)). Besides, the “d: soybean, effect on crop grade” value in the series with soybean [6] is reported as 0 (Herbicidal ratio of 5% or lower (almost no effect)). Moreover, the “g (rapeseed) effect on crop grade” value in the series with rapeseed is 0 (Herbicidal ratio of 5% or lower (almost no effect)).
